Results from patent US11833162B2, “Macrocyclic derivatives, process for preparing same and pharmaceutical compositions containing same” (LES LABORATOIRES SERVIER, priority 2017, dated 2023).
Where a name gives a salt, the structure may show the parent alone.

Experiments:
[1] = tested on: RS4; 11 leukaemia tumour line; assay: In vitro cytotoxicity, Microculture Tetrazolium Assay (MTT); assay type: cell-based; conditions: 11 cells, 48 hours exposure
Protocol: The cytotoxicity studies were carried out on the RS4; 11 leukaemia tumour line.
The cells are distributed onto microplates and exposed to the test compounds for 48 hours.
The cell viability is then quantified by a colorimetric assay, the Microculture Tetrazolium Assay (Cancer Res., 1987, 47, 939-942).

Bcl-2 protein = Bcl-2 protein (histag-Bcl-2, UniProtKB P10415) (Homo sapiens, UniProt P10415); assay: Inhibition of Bcl-2 by the fluorescence polarisation technique; assay type: binding; conditions: fluorescence polarisation, 2 hours incubation; read-out: IC50 (μM) Bcl-2 FP
Protocol: The fluorescence polarisation tests were carried out on microplates (384 wells). The Bcl-2 protein, labelled (histag-Bcl-2 such that Bcl-2 corresponds to the UniProtKB® primary accession number: P10415), at a final concentration of 5×10^−9M, is mixed with a fluorescent peptide (Fluorescein-REIGAQLRRMADDLNAQY), at a final concentration of 1.00×10^−9M in a buffer solution (Hepes 10 mM, NaCl 150 mM, Tween20 0.05%, pH 7.4), in the presence or absence of increasing concentrations of test compounds. After incubation for 2 hours, the fluorescence polarisation is measured.

Sequence of Bcl-2 protein (P10415 whole entry): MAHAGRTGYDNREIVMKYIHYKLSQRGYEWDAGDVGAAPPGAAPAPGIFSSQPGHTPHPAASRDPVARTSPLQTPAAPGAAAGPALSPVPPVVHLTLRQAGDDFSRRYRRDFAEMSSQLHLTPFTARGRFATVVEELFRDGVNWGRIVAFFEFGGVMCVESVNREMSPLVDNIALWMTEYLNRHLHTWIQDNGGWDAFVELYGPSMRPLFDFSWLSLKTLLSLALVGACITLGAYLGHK

Row | Structure (SMILES) | IC50 [1] | IC50 (Bcl-2 protein) | IC50 ([1]; Homo sapiens, RS4-11, 48 h)
1 | Cc1c2cc(n1C)-c1cc(Cl)ccc1C(=O)N1Cc3cccc(c3CC1C)OCCCc1c(cc(C#N)n1C)N(c1ccc(O)cc1)C2=O (single isomer, unassigned) [Example 25, (16R or S)-11-Chloro-4-(4-hydroxyphenyl)-1,7,8,16-tetramethyl-5,14-dioxo-4,5,8,16,17,23,24,25-octahydro-1H,14H-15,18-methano-6,9-(metheno)dibenzo[b,h]-pyrrolo[3,2-p][1,6,11,15]oxatriazacycloicosine-2-carbonitrile] | 809 nM | 0.268 µM | 
2 | Cc1c2cc(n1C)-c1cc(Cl)ccc1C(=O)N1Cc3cccc(c3CC1C)OCCCc1c(cc(C#N)n1C)N(c1ccc(O)cc1)C2=O (single isomer, unassigned) [Example 26, (16S or R)-11-Chloro-4-(4-hydroxyphenyl)-1,7,8,16-tetramethyl-5,14-dioxo-4,5,8,16,17,23,24,25-octahydro-1H,14H-15,18-methano-6,9-(metheno)-dibenzo[b,h]pyrrolo[3,2-p][1,6,11,15]oxatriazacycloicosine-2-carbonitrile] | 1.66 nM | 0.0041 µM | 
3 | Cc1c2cc(n1C)-c1cc(Cl)ccc1C(=O)N1CCc3c(cccc3OCCOc3cccc(c3)N(c3ccc(O)cc3)C2=O)C1 [Example 1, 6-Chloro-14-(4-hydroxyphenyl)-10,11-dimethyl-20,23-dioxa-1,10,14-triazahexacyclo[26.3.1.1˜9,12˜.1˜15,19−.0˜3,8˜.0˜24.29˜]tetratriaconta-3,5,7,9(34),11,15(3.3),16,18,24,26,28-undecaene-2,13-dione] |  | 0.0067 µM | 107 nM
4 | Cc1c2cc(n1C)-c1cc(Cl)ccc1C(=O)N1CCc3c(cccc3OCCCOc3cccc(c3)N(c3ccc(O)cc3)C2=O)C1 [Example 2, 6-Chloro-14-(4-hydroxyphenyl)-10,11-dimethyl-20,24-dioxa-1,10,14-triazahexacyclo[27.3.1.1˜9,12˜.1˜15,19˜.0˜3,8˜.0˜25,30˜]pentatriaconta-3,5,7,9(35),11,15(34),16,18,25,27,29-undecaene-2,13-dione] |  | 0.0044 µM | 179 nM
5 | Cc1c2cc(n1C)-c1cc(Cl)ccc1C(=O)N1CCc3c(cccc3OCCCCOc3cccc(c3)N(c3ccc(O)cc3)C2=O)C1 [Example 3, 6-Chloro-14-(4-hydroxyphenyl)-10,11-dimethyl-20,25-dioxa-1,10,14-triazahexacyclo[28.3.1.1˜9,12˜.1˜15,19˜.0˜3,8˜.0˜26,31˜]hexatriaconta-3,5,7,9(36),11,15(35),16,18,26,28,30-undecaene-L 3-dione] |  | 0.0655 µM | 749 nM
6 | Cc1c2cc(n1C)-c1cc(Cl)ccc1C(=O)N1CCc3c(cccc3OCCOc3cc(C#N)cc(c3)N(c3ccc(O)cc3)C2=O)C1 [Example 4, 6-Chloro-14-(4-hydroxyphenyl)-10,11-dimethyl-2,13-dioxo-20,23-dioxa-1,10,14-triazahexacyclo[26.3.1.1˜9,12˜.1˜5,19˜.0˜3,8˜.0˜24.29˜]tetratriaconta-3,5,7,9(34),11,15(33),16,18,24,26,28-undecaene-17-carbonitrile] |  | 0.0023 µM | 7.73 nM
7 | Cc1c2cc(n1C)-c1cc(Cl)ccc1C(=O)N1CCc3c(cccc3OCCCOc3cc(C#N)cc(c3)N(c3ccc(O)cc3)C2=O)C1 [Example 5, 6-Chloro-14-(4-hydroxyphenyl)-10,11-dimethyl-2,13-dioxo-20,24-dioxa-1,10,14-triazahexacyclo[27.3.1.1˜9,12˜.1˜15,19˜.0˜3,8˜.0˜25,30˜]pentatriaconta-3,5,7,9(35),11,15(34),16,18,25,27,29-undecaene-17-carbonitrile] |  | 0.00205 µM | 21.4 nM
8 | Cc1c2cc(n1C)-c1cc(Cl)ccc1C(=O)N1CCc3c(cccc3OCCCCn3c(C#N)cc(c3C)N(c3ccc(O)cc3)C2=O)C1 [Example 7, 6-Chloro-14-(4-hydroxyphenyl)-10,11,33-trimethyl-2,13-dioxo-23-oxa-1,10,14,18-tetraazahexacyclo[26.3.1.1˜9,12˜.1˜15,18˜.0˜3,8˜.0˜24,29˜]tetratriaconta-3,5,7,9(34),11,15(33),16,24,26,28-decaene-17-carbonitrile] |  | 0.003 µM | 4.94 nM
9 | Cc1c2cc(n1C)-c1cc(Cl)ccc1C(=O)N1CCc3c(cccc3OCCCn3c(C#N)cc(c3C)N(c3ccc(O)cc3)C2=O)C1 [Example 8, 6-Chloro-14-(4-hydroxyphenyl)-10,11,32-trimethyl-2,13-dioxo-22-oxa-1,10,14,18-tetraazahexacyclo[25.3.1.1˜9,12˜.1˜15,18˜.0˜3,8˜.0˜23,28˜]tritriaconta-3,5,7,9(33),11,15(32),16,23,25,27-decaene-17-carbonitrile] |  | 0.00615 µM | 49.3 nM
10 | Cc1c2cc(n1C)-c1cc(Cl)ccc1C(=O)N1CCc3c(cccc3OCCCc3cc(C#N)cc(c3)N(c3ccc(O)cc3)C2=O)C1 [Example 9, 6-Chloro-14-(4-hydroxyphenyl)-10,11-dimethyl-2,13-dioxo-23-oxa-1,10,14-triazahexacyclo[26.3.1.1˜9,12˜.1˜15,19˜.0˜3,8˜.0˜24,29˜]tetratriaconta-3,5,7,9(34),11.15 (33),16,18,24,26,28-undecaene-17-carbonitrile] |  | 0.0023 µM | 5.24 nM
11 | Cc1c2cc(n1C)-c1cc(Cl)ccc1CN1CCc3c(cccc3OCCc3c(cnn3C)N(c3ccc(O)cc3)C2=O)C1 [Example 10, 11-Chloro-4-(4-hydroxyphenyl)-1,7,8-trimethyl-1,4,16,17,23,24-hexahydro-14H-15,18-methano-6,9-(metheno)dibenzo[l,r]pyrazolo[3,4-d]-[1,6,10,15]oxatriazacyclononadecin-5(8H)-one hydrochloride] |  | 0.299 µM | > 300 nM
12 | Cc1c2cc(n1C)-c1cc(Cl)ccc1CN1CCc3c(cccc3OCCCc3c(cnn3C)N(c3ccc(O)cc3)C2=O)C1 [Example 11, 11-Chloro-4-(4-hydroxyphenyl)-1,7,8-trimethyl-4,16,17,23,24,25-hexahydro-1H,14H-15,18-methano-6,9-(metheno)dibenzo[b,h]pyrazolo[4,3-p]-[1,6,11,15]oxatriazacycloicosin-5(8H)-one] |  | 0.157 µM | 448 nM
13 | Cc1c2cc(n1C)-c1cc(Cl)ccc1C(=O)N1Cc3ccccc3C(COc3ccc(C#N)cc3N(c3ccc(O)cc3)C2=O)C1 (centres unmarked) [Example 13, 12-Chloro-5-(4-hydroxyphenyl)-8,9-dimethyl-6,15-dioxo-6,9,22,23-tetrahydro-5H,15H,17H-16,22-methano-7,10-(metheno)tribenzo[b,j,o][1,4,8,13]oxa-triazacyclooctadecine-3-carbonitrile] |  | 0.0332 µM | 239 nM
14 | Cc1c2cc(n1C)-c1cc(Cl)ccc1C(=O)N1CCc3c(cccc3C1)CCCOc1cc(C#N)cc(c1)N(c1ccc(O)cc1)C2=O [Example 14, 6-Chloro-14-(4-hydroxyphenyl)-10,11-dimethyl-2,13-dioxo-20-oxa-1,10,14-triazahexacyclo[26.3.1.1˜9,12˜.1˜15,19˜.0˜3,8˜.0˜24,29˜]tetratriaconta-3,5,7,9(34),11,15(33),16,18,24,26,28-undecaene-17-carbonitrile] |  | 0.0147 µM | 14.6 nM
15 | Cc1c2cc(n1C)-c1cc(Cl)ccc1C(=O)N1CCc3c(cccc3OCCCCn3cc(cn3)N(c3ccc(O)cc3)C2=O)C1 [Example 15, Chloro-14-(4-hydroxyphenyl)-10,11-dim ethyl-23-oxa-1,10,14,17,18-pentaazahexacyclo[26.3.1.1˜9,12˜.1˜15,18˜.0˜3,8˜.0˜24,29˜]tetratriaconta-3,5,7, 9(34),11,15(33),16,24,26,28-deca ene-2,13-dione] |  | 0.0037 µM | 11.6 nM
16 | Cc1c2cc(n1C)-c1cc(Cl)ccc1C(=O)N1Cc3cccc(c3CC1CN1CCOCC1)OCCCc1c(cnn1C)N(c1ccc(O)cc1)C2=O (centres unmarked) [Example 17, 11-Chloro-4-(4-hydroxyphenyl)-1,7,8-trimethyl-16-(morpholin-4-ylmethyl)-4,16,17,23,24,25-hexahydro-1H,14H-15,18-methano-6,9-(metheno)dibenzo-[b,h]pyrazolo[4,3-p][1,6,11,15]oxatriazacycloicosine-5,14(8H)-dione] |  | 0.0123 µM | 62.8 nM
17 | Cc1c2cc(n1C)-c1cc(Cl)ccc1C(=O)N1CCc3c(cccc3OCCc3c(cc(C#N)n3C)N(c3ccc(O)cc3)C2=O)C1 [Example 19, 11-Chloro-4-(4-hydroxyphenyl)-1,7,8-trimethyl-5,14-dioxo-1,4,5,8,16,17,23,24-octahydro-14H-15,18-methano-6,9-(metheno)dibenzo[l,r]pyrrolo-[2,3-d][1,6,10,15]oxatriazacyclononadecine-2-carbonitrile] |  | 0.0055 µM | 10.3 nM
18 | Cc1c2cc(n1C)-c1cc(F)ccc1C(=O)N1CCc3c(cccc3OCCc3c(cnn3C)N(c3ccc(O)cc3)C2=O)C1 [Example 20, 11-Fluoro-4-(4-hydroxyphenyl)-1,8-trimethyl-1,4,16,17,23,24-hexahydro-14H-15,18-methano-6,9-(metheno)dibenzo[l,r]pyrazolo[3,4-d][1,6,10,15]oxatriazacyclo-nonadecine-5,14(8H)-dione] |  | 0.0123 µM | 81.2 nM
19 | Cc1c2cc(n1C)-c1cc(Cl)ccc1C(=O)N1CCc3c(cccc3OCCOc3c(cnn3C)N(c3ccc(O)cc3)C2=O)C1 [Example 21, 11-Chloro-4-(4-hydroxyphenyl)-1,7,8-trimethyl-1,4,16,17,23,24-hexahydro-14H-15,18-methano-6,9-(metheno)dibenzo[m,s]pyrazolo[3,4-e][1,4,7,11,16]dioxa-triazacycloeicosin-5,14(8H)-dione] |  | 0.0148 µM | 131 nM
